ChEMBL document CHEMBL1147278, “Pharmacologically Active Metabolites from Symbiotic Microalgae in Okinawan Marine Invertebrates” (J Nat Prod, 1989)
Values after ≈ are worked out from the molar mass of the structure shown.

What was measured:
[1] = Inhibition of sodium potassium ATPase activity
L1210 = assay: Antitumor activity against mouse L1210 cells; assay type: functional, cell-based
[2] = Activation of calcium ATPase in sarcoplasmic reticulum at 100 uM

Row | Structure (SMILES) | IC50 [1] [µM] | IC50 (L1210) [µg/mL] | Activity [2] [%]
1 | C=C1/C=C(\C)[C@@H](C)[C@@H](O)CC(=O)[C@@H](C)CC(=O)C[C@H]2CC[C@@H](O2)[C@H](/C=C/C=C(\C)[C@@H](O)C(=C)CCCC)OC(=O)C[C@@H]2O[C@H](C[C@H]2C)[C@H](O)[C@@H]1O [AMPHIDINOLIDE C] |  | 0.0058 (≈ 0.00811 µM) | 
2 | C=C1/C=C(\C)[C@](C)(O)C[C@H](O)CC(=O)[C@@H](O)[C@@H](O)[C@H](C)C[C@H](C)OC(=O)/C(C)=C/CC/C=C/[C@@H]2O[C@H]2C[C@H](C)C1 [AMPHIDINOLIDE D] |  | 0.019 (≈ 0.0338 µM) | 
3 | CC/C=C\C/C=C\C/C=C\C/C=C\CCCCC(=O)OCC(O)CO[C@@H]1O[C@H](CO)[C@H](O)[C@H](O)[C@H]1O (some centres undefined) | 20 |  | 
4 | C=C1C/C=C/[C@H](O)[C@@H](O)C(=C)[C@@H](O)[C@H](O)C(=C)C/C=C/C(C)=C/C(=O)O[C@H]([C@@H]2O[C@H]2[C@@H](C)CCC)[C@@H](C)C1 [AMPHIDINOLIDE A] |  | 2.4 (≈ 4.52 µM) | 
5 | CC/C=C\C/C=C\C/C=C\C/C=C\CCCCC(=O)OCC(CO[C@@H]1O[C@H](CO[C@H]2O[C@H](CO)[C@H](O)[C@H](O)[C@H]2O)[C@H](O)[C@H](O)[C@H]1O)OC(=O)CCCC/C=C\C/C=C\C/C=C\C/C=C\CC (some centres undefined) | 20 |  | 

Now from value to compound:

Row | IC50 [1] [µM] | IC50 (L1210) [µg/mL] | Activity [2] [%] | Structure (SMILES)
6 | 20 |  |  | CC/C=C\C/C=C\C/C=C\C/C=C\CCCCC(=O)OCC(CO[C@@H]1O[C@H](CO)[C@H](O)[C@H](O)[C@H]1O)OC(=O)CCCC/C=C\C/C=C\C/C=C\C/C=C\CC (some centres undefined)
7 |  | 0.00014 (≈ 0.000249 µM) |  | C=C1/C=C(\C)[C@](C)(O)C[C@H](O)CC(=O)[C@H](O)[C@@H](O)[C@H](C)C[C@H](C)OC(=O)/C(C)=C/CC/C=C/[C@@H]2O[C@H]2C[C@H](C)C1 [AMPHIDINOLIDE B]
8 |  | 9.5 (≈ 16.3 µM) | 30 | CCCCCCCCCCCCCC/C=C/C(O)C(=O)N[C@@H](CO)[C@H](O)CCCCCCCCCCCCCCC (some centres undefined) [SYMBIORAMIDE]
